Laboratory results taken from patent US12144834B2, “Methods and compositions for treating gastrointestinal and inflammatory disorders” (Xbiome Inc., priority 2018, dated 2024).
≈ marks a conversion by molar mass, not a printed value. Where two headings read alike, the source gives them in different places.

What was measured:
BTH01 = test: Phenotypic antibiotic susceptibility (MIC), research cell bank; format: cell-based, Bacteroides thetaiotaomicron; details: for MIC: Bacteroides thetaiotaomicron, read-out: Determined MIC; for MIC Interpretation: against BTH01
EHA01 = test: Phenotypic antibiotic susceptibility (MIC, Etests), research cell bank; format: cell-based, Eubacterium hallii; details: for MIC: Anaerobutyricum hallii, read-out: Determined MIC; for MIC Interpretation: against EHA01
RHO01 = test: as above; format: cell-based, Roseburia hominis; details: for MIC: Roseburia hominis, read-out: Determined MIC; for MIC Interpretation: against RHO01

With CO[C@@]1(NC(=O)C2SC(=C(C(N)=O)C(=O)O)S2)C(=O)N2C(C(=O)O)=C(CSc3nnnn3C)CS[C@@H]21 (some centres unmarked) [Cefotetan] the MIC (BTH01; against BTH01, agar dilution) was 256 µg/mL (≈ 445 µM) and the “MIC Interpretation” value (BTH01) was “R”.

For CC1(C)S[C@@H]2[C@H](NC(=O)[C@H](N)c3ccccc3)C(=O)N2[C@H]1C(=O)O [Ampicillin], the MIC (EHA01; against EHA01, Etests) was 0.06 µg/mL (≈ 0.172 µM), the “MIC Interpretation” value (EHA01) was “S” and the MIC (RHO01; against RHO01, Etests) was at most 0.016 µg/mL. For the same compound, the “MIC Interpretation” value (RHO01) was “S”, the MIC (BTH01; against BTH01, agar dilution) was 32 µg/mL (≈ 91.6 µM) and the “MIC Interpretation” value (BTH01) was “R”.

CN[C@H](CC(C)C)C(=O)N[C@H]1C(=O)N[C@@H](CC(N)=O)C(=O)N[C@H]2C(=O)N[C@H]3C(=O)N[C@H](C(=O)N[C@H](C(=O)O)c4cc(O)cc(O)c4-c4cc3ccc4O)[C@H](O)c3ccc(c(Cl)c3)Oc3cc2cc(c3O[C@@H]2O[C@H](CO)[C@@H](O)[C@H](O)[C@H]2O[C@H]2C[C@](C)(N)[C@H](O)[C@H](C)O2)Oc2ccc(cc2Cl)[C@H]1O [Vancomycin] gave an MIC (EHA01) of 0.12 µg/mL (≈ 0.0828 µM), an MIC (RHO01) of 0.25 µg/mL (≈ 0.173 µM) and an MIC (BTH01) of 64 µg/mL (≈ 44.2 µM).

With C[C@@H](O)[C@H]1C(=O)N2C(C(=O)O)=C(SCCN=CN)C[C@H]12 [Imipenem] the MIC (EHA01; against EHA01, Etests) was 0.008 µg/mL (≈ 0.0267 µM), the “MIC Interpretation” value (EHA01) was “S” and the MIC (RHO01; against RHO01, Etests) was 0.12 µg/mL (≈ 0.401 µM). The “MIC Interpretation” value (RHO01) was “S”, the MIC (BTH01; against BTH01, agar dilution) was 0.5 µg/mL (≈ 1.67 µM) and the “MIC Interpretation” value (BTH01) was “S”.

In the case of Cc1ncc([N+](=O)[O-])n1CCO [Metronidazole], the MIC (EHA01; against EHA01, Etests) was 0.06 µg/mL (≈ 0.351 µM), the “MIC Interpretation” value (EHA01) was “S” and the MIC (RHO01; against RHO01, Etests) was 0.03 µg/mL (≈ 0.175 µM). For the same compound, the “MIC Interpretation” value (RHO01) was “S”, the MIC (BTH01; against BTH01, agar dilution) was 2 µg/mL (≈ 11.7 µM) and the “MIC Interpretation” value (BTH01) was “S”.

With CCC[C@@H]1C[C@@H](C(=O)N[C@@H]([C@H]2O[C@H](SC)[C@H](O)[C@@H](O)[C@H]2O)[C@H](C)Cl)N(C)C1 [Clindamycin] the MIC (EHA01; against EHA01, Etests) was 0.03 µg/mL (≈ 0.0706 µM), the “MIC Interpretation” value (EHA01) was “S” and the MIC (RHO01; against RHO01, Etests) was at most 0.016 µg/mL. The “MIC Interpretation” value (RHO01) was “S”, the MIC (BTH01; against BTH01, agar dilution) was over 32 µg/mL and the “MIC Interpretation” value (BTH01) was “R”.

In the case of COc1c(N2C[C@@H]3CCCN[C@@H]3C2)c(F)cc2c(=O)c(C(=O)O)cn(C3CC3)c12 [Moxifloxacin], the MIC (EHA01; against EHA01, Etests) was 2 µg/mL (≈ 4.98 µM), the “MIC Interpretation” value (EHA01) was “S” and the MIC (RHO01; against RHO01, Etests) was 32 µg/mL (≈ 79.7 µM). For the same compound, the “MIC Interpretation” value (RHO01) was “R”, the MIC (BTH01; against BTH01, agar dilution) was 2 µg/mL (≈ 4.98 µM) and the “MIC Interpretation” value (BTH01) was “S”.
